Consider 6 molecules from patent US7964399B2, “Cell line comprising vector encoding truncated FLK-1 receptor” (Max-Planck-Gesellschaft zur Forderung der Wissenschaften …, priority 1992, dated 2011).

Entries after “also recorded” stand apart in the source; their conditions may differ.

Assay [1] addresses T1, Flk-1 (Mus musculus, UniProt P35918, P25T). Kind of assay: Cellular Flk-1 assay: VEGF-stimulated Flk-1 receptor autophosphorylation, antiphosphotyrosine Western blot. It is filed as cell-based. Set-up: expressed in transfected cells; host or cells: NIH 3T3 (3T3 Flk-1 cell line). The conditions noted are these: test concentration 100 μM, FIG. 17, NIH3T3 cells expressing Flk-1. The method, then: FIG. 17. Inhibition of VEGF stipulatory activity of Flk-1. Test compounds and VEGF were co-incubated on cells expressing the Flk-1 receptor. The level of tyrosine phosphorylation was measured in a Western blot format using an antiphosphotyrosine antibody. […] (Compounds A7, A8, and A10 were toxic to these cells resulting in cell death.).
Organic compounds that modulate Flk-1 receptor mediated signal transduction can be assayed in a cellular Flk-1 assay wherein modulation of Flk-1 receptor autophosphorylation is measured using an antiphosphotyrosine antibody. In the example shown below, the results are analyzed using a Western blot of electrophoresed cell lysates. Levels of phosphorylation as be measured by other techniques known in the art.
NIH3T3 cells expressing high levels of Flk-1 were seeded in 12-well plates at 250,000 cells/well in DMEM+0.5% calf serum and incubated overnight at 37° C. plus or minus the test substance. […]
For the Western blot assay, forty microliters of saved supernatant per lane were loaded onto a 7.5% SDS-PAGE gel (10 lanes/gel, 1.5 mm thick) and run at 120 V until the dye reached the bottom of the gel. […] Protein bands were detected by soaking the membrane in ECL chemiluminescence system (Amersham Corp., prepared by mixing equal volumes of reagent 1 and 2) for 1 minute and then exposing the film for about 1-10 minutes.
In general terms: A western blot detects proteins with antibodies after separation by electrophoresis.

Assay [2] concerns the target T1, Flk-1. Kind of assay: 125I-VEGF competition binding to COS-1 cells transiently expressing Flk-1. As to conditions: for competition with binding of 125I-VEGF: Flk-1 transfected COS-1 cells. Set-up: the full-length Flk-1 cDNA was cloned into the mammalian expression vector PCMV; expressed in transfected cells; host or cells: COS-1 (transient, CMV-promoter vector).
Assay [3] concerns the target murine Flk-1 receptor (fetal liver kinase 1), full length, wild type, 180 kD (mouse) (UniProt P35918). Kind of assay: cell-based or functional assay.
For assay [4], the target named is T1, Flk-1. Kind of assay: [3H]thymidine incorporation (mitogenic response) in Flk-1-expressing NIH 3T3 cells. Format: cell-based. More on the design: the full-length Flk-1 cDNA was cloned into the mammalian expression vector PCMV; expressed in transfected cells. The conditions noted are these: 3T3 Flk-1 cell line. The text has this:
The dominant-negative potential of Flk-1 TM was first examined by measuring its influence on the mitogenic response of Flk-1-expressing NIH 3T3 cells after superinfection with the Flk-1 TM virus.
For orientation: Incorporation of labelled thymidine or its analogues reports DNA synthesis.

Assay [5] has as its target T1, Flk-1. Kind of assay: VEGF-induced autophosphorylation of Flk-1 in COS cells. Format: cell-based. More on the design: expressed in transfected cells; dose or concentration left out as unconfirmed. As to conditions: COS1 cells transiently expressing Flk-1, stimulated with VEGF.
In assay [6] the target is T2, Flk-1 TM, truncated transdominant-negative Flk-1 receptor mutant (amino acids 1 through 806), 130 kD (mouse, UniProt P35918 20-806).
T2 construct: Lacks the 561 C-terminal amino acids of the intracellular kinase domain; keeps the transmembrane domain and 23 residues of the cytoplasmic domain; A BglII/HpaI linker with a stop codon (5' GTC ATG GAT CTT CGT TAA 3') may add or change a few C-terminal residues; Expressed in cells (COS, NIH 3T3); also called truncated Flk-1 receptor; pLXSN Flk-1 TM cl.1
Kind of assay: ^125I-VEGF binding to 3T3 Flk-1/Flk-1 TM cells against the parental 3T3 Flk-1 cells.

Assay [7] addresses T3, murine Flk-1 receptor (fetal liver kinase 1), full length, wild type, 180 kD (mouse, UniProt P35918 20-1345).
T3 construct: Full-length Flk-1 cDNA in pCMV, transiently expressed in COS-1 cells; also stably expressed in NIH 3T3 cells; also called Flk-1 RTK; wild type Flk-1
Kind of assay: competition binding of unlabeled VEGF against 10 pM ^125I-VEGF on COS-1 cells expressing Flk-1, analysis by Munson and Rodbard. How it is done: FIGS. 9A and 9B. Flk-1 is a receptor for VEGF. […] The cells were lysed, Flk-1 receptor immunoprecipitated, and analyzed by polyacrylamide gel electrophoresis followed by autoradiography. Molecular size markers are indicated in kilodaltons. […] COS cells transiently expressing Flk-1 were removed from the plate and resuspended in binding medium (DMEM, 25 mM Hepes, 0.15% gelatin). […] The cells were washed twice with PBS/0.1% BSA and counted in a gamma counter.
Ligand binding experiments were performed as described previously (Schumacher, R. et al., 1991, J. Biol. Chem. 266: 19288-19295), COS-1 cells were grown in a 15-cm culture dish in DMEM for 48 h after transfection. Cells were then washed carefully with PBS and incubated with 5 ml of 25 mM EDTA in PBS for 10 min. Cells were then removed from the plate, washed once with binding buffer (DMEM, 25 mM HEPES, pH 7.5, 0.15% gelatin) and resuspended in 5 ml of binding buffer to determine the cell number. […] Data obtained were analyzed by the method of Munson, P. J. and Rodbard, D. (1980 Anal. Biochem. 107:220-235).

T1 sequence (P35918 with tags, fused parts or gaps P25T limits assumed): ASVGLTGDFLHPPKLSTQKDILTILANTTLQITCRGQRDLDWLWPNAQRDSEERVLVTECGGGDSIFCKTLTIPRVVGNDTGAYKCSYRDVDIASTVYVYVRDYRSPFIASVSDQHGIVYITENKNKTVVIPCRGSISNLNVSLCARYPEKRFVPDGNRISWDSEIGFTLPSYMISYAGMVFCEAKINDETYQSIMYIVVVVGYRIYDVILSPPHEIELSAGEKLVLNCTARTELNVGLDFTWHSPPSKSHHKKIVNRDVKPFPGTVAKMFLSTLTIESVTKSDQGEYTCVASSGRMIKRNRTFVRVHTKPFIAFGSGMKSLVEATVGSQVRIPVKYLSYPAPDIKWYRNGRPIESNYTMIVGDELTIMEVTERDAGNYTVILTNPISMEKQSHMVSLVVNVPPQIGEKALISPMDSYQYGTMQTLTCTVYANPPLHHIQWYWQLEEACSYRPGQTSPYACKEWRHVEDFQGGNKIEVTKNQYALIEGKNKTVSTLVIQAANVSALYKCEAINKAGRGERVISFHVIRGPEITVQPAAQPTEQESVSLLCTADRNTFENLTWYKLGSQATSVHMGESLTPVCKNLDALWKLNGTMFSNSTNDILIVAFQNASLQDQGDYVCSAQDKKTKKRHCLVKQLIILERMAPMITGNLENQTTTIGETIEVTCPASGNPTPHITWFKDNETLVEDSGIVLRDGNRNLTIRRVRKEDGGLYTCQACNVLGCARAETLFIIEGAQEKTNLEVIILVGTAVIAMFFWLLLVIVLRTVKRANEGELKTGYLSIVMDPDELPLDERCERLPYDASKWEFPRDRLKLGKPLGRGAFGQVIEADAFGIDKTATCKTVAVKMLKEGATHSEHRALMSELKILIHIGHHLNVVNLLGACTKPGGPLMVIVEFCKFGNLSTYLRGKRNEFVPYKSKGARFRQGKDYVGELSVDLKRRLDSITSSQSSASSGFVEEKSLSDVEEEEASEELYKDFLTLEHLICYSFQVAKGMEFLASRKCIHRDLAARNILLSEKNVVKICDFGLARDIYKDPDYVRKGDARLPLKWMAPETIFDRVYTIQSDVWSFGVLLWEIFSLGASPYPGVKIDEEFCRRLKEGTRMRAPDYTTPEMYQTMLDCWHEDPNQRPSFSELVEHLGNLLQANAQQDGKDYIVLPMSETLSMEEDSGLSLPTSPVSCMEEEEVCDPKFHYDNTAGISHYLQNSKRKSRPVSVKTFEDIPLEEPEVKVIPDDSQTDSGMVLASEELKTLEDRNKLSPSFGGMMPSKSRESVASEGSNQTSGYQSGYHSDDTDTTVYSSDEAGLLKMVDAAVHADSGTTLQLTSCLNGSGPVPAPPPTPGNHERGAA
Sequence of murine Flk-1 receptor (fetal liver kinase 1), full length, wild type, 180 kD (mouse) (P35918 other isoform, or with tags, fused parts or gaps limits assumed): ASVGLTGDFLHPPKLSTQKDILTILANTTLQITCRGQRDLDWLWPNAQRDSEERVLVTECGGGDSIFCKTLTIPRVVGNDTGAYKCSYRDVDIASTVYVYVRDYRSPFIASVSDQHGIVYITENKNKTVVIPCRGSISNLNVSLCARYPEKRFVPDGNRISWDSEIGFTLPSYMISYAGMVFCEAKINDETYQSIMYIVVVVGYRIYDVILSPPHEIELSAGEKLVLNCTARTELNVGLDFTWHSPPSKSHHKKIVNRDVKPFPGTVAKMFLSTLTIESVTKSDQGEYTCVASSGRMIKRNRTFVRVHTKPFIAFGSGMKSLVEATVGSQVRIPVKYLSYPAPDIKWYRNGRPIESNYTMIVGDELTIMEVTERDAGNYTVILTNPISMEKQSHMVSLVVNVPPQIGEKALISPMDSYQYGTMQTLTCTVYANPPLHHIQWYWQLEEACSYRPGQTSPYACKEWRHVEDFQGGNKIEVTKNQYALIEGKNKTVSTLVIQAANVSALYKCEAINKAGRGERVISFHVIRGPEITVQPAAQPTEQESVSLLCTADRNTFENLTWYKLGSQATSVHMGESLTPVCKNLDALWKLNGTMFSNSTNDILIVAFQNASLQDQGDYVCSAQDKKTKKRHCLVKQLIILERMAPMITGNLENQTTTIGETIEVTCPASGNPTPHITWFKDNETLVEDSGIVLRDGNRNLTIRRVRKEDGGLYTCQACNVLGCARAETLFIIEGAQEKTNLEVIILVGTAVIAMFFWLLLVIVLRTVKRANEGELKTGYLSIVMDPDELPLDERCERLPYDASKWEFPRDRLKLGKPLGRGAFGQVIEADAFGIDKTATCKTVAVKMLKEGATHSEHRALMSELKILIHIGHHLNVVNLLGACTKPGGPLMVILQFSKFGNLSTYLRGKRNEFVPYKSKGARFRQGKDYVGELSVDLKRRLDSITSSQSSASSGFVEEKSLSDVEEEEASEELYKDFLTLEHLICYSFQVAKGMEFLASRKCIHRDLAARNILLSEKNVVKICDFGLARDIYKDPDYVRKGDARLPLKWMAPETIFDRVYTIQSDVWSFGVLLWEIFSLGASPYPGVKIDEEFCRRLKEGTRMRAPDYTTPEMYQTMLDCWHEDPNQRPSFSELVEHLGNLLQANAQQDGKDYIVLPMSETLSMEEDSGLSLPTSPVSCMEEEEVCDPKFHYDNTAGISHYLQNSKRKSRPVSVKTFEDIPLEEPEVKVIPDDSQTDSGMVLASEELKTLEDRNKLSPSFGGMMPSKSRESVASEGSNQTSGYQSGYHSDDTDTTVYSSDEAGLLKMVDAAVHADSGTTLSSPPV
T2 sequence (P35918 other isoform, or with tags, fused parts or gaps mutant): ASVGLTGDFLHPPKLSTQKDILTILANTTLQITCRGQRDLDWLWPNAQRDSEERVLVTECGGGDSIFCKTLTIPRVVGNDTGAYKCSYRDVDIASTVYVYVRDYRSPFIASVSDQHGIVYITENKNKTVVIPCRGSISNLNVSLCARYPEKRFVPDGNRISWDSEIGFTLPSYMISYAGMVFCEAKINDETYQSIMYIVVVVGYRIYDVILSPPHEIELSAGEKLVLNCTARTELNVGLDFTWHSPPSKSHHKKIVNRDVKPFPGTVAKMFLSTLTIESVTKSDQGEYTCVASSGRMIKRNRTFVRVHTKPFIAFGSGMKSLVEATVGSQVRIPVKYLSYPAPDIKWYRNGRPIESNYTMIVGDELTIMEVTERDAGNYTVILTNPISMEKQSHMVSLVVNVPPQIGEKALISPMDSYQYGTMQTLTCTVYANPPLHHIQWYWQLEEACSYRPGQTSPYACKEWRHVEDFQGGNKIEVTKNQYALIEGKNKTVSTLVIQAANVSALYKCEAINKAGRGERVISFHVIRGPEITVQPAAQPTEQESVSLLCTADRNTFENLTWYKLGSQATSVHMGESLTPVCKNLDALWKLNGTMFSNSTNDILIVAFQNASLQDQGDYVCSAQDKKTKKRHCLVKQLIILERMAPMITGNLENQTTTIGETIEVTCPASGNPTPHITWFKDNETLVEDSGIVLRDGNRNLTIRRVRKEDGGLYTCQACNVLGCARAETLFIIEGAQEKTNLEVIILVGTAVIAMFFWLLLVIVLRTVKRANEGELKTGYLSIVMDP
T3 sequence (P35918 other isoform, or with tags, fused parts or gaps limits assumed): as the sequence (P35918 other isoform, or with tags, fused parts or gaps limits assumed) above

Take `c1ccc(-c2cnc3cc4ccccc4cc3n2)cc1` [Compound A14]: the “inhibition of VEGF-stimulated Flk-1 receptor phosphorylation” value against Flk-1 [1] was “almost completely; also recorded: completely inhibited”.
On to “PDGF-BB: growth factor used as specificity control in 125I-VEGF competition binding [reference compound]”, for which the “competition with binding of 125I-VEGF” value with Flk-1 [2] was “did not compete”.
In assay [3], “VEGF (preparation not specified) used for stimulation of cells (ligand)” displayed a [^3H] thymidine incorporation in the 3T3 Flk-1 cell line, EC50 of 0.1 nM and a [^3H] thymidine incorporation in the 3T3 Flk-1 cell line, concentration of maximal stimulation of 500 pM.
For the molecule “vascular endothelial growth factor [VEGF]”, on Flk-1 [4], the EC50 (commonly the concentration that produces a half-maximal response) is around 0.1 nM and the “concentration giving maximal stimulation of [3H] thymidine incorporation” value was found to be 500 pM. Moreover, the “tyrosine phosphorylation of the 180 kD Flk-1 receptor” value at Flk-1 [5] was “significant induction”. Also, the Kd (usually the equilibrium constant for the complex coming apart) at Flk-1 [2] (Flk-1 expressing COS-1 cells, 125I-VEGF, 15° C., 90 min) was around 0.1 nM. Also, the “competition with binding of 125I-VEGF” value on Flk-1 [2] is “competed”.

B1: ^125I-labeled recombinant human VEGF (ligand, UniProt P15692-4 27-191, looked up)
chain: APMAEGGGQNHHEVVKFMDVYQRSYCHPIETLVDIFQEYPDEIEYIFKPSCVPLMRCGGCCNDEGLECVPTEESNITMQIMRIKPHQGQHIGEMSFLQHNKCECRPKKDRARQENPCGPCSERRKHLFVQDPQTCKCSCKNTDSRCKARQLELNERTCRCDKPRR
modifications: radioiodinated (^125I) by the procedure of Hunter and Greenwood; positions not given
notes: also called iodinated VEGF
Take B1: in assay [6], the “fold increase of cell surface receptors against the parental 3T3 Flk-1 line” value came to 6 fold.

B2: unlabeled VEGF (164 amino acid form), partially purified from conditioned media of COS-1 cells transiently expressing VEGF (ligand, UniProt Q00731-2 27-190, looked up)
chain: APTTEGEQKSHEVIKFMDVYQRSYCRPIETLVDIFQEYPDEIEYIFKPSCVPLMRCAGCCNDEALECVPTSESNITMQIMRIKPHQSQHIGEMSFLQHSRCECRPKKDRTKPENHCEPCSERRKHLFVQDPQTCKCSCKNTDSRCKARQLELNERTCRCDKPRR
notes: Partially purified on heparin columns; also called unlabeled ligand
Molecule B2 had a Kd in assay [7] of around 0.1 nM.
